From PubChem BioAssay AID248 (DTP/NCI, 2004)
Several values for one entry are separate records, joined by “and”; a condition that tells them apart may be missing. Equal values may be shown once. Inconclusive results and toxic doses are left out. No stated cut-off is given here; in the data, active means T/C of 150% or more; inactive means T/C below 125%.

Tested on: L1210 leukemia ip in BDF1 mice, survival T/C
Test: NCI In Vivo Anticancer Drug Screen. Data for tumor model L1210 Leukemia (intraperitoneal) in B6D2F1 (BDF1) mice
Details: endpoint: mean survival time, higher = longer survival
How it was run: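 In this screen, tumor-bearing mice given compound are compared to those given vehicle, and their survival values are reported as a treated-to-control quotient.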

[1] = dose: 100.0 mg/kg/injection, schedule: Q01DX009 (ip), vehicle: saline
[2] = dose: 100.0 mg/kg/injection, schedule: Q04DX003 (ip), vehicle: saline
[3] = dose: 200.0 mg/kg/injection, schedule: Q04DX003 (ip), vehicle: saline
[4] = dose: 100.0 mg/kg/injection, schedule: Q01DX001 (ip), vehicle: saline
[5] = dose: 200.0 mg/kg/injection, schedule: Q01DX001 (ip), vehicle: saline
[6] = dose: 400.0 mg/kg/injection, schedule: Q01DX001 (ip), vehicle: saline
[7] = dose: 50.0 mg/kg/injection, schedule: Q01DX001 (ip), vehicle: Klucel (hydroxypropylcellulose) (HPC)
[8] = dose: 100.0 mg/kg/injection, schedule: Q01DX001 (ip), vehicle: Klucel (hydroxypropylcellulose) (HPC)
[9] = dose: 100.0 mg/kg/injection, schedule: Q01DX001 (ip), vehicle: carboxymethylcellulose (CMC)
[10] = dose: 200.0 mg/kg/injection, schedule: Q01DX001 (ip), vehicle: carboxymethylcellulose (CMC)

Measured: T/C

CC1=CC(C)(C)Nc2cc(N)ccc21
inactive: dose: 75.0 mg/kg/injection, schedule: Q01DX001 (ip), vehicle: other 110 % of control | dose: 150.0 mg/kg/injection, schedule: Q01DX001 (ip), vehicle: other 105 % of control | dose: 300.0 mg/kg/injection, schedule: Q01DX001 (ip), vehicle: other 91 % of control

COc1ccc(C(=O)C(Br)C(Br)C(=O)O)cc1 (stereo unspecified)
inactive: dose: 12.5 mg/kg/injection, schedule: Q01DX009 (ip), vehicle: saline with Tween-80 93 % of control | dose: 25.0 mg/kg/injection, schedule: Q01DX009 (ip), vehicle: saline with Tween-80 102 % of control | dose: 25.0 mg/kg/injection, schedule: Q01DX009 (ip), vehicle: saline 102 % of control | dose: 25.0 mg/kg/injection, schedule: Q04DX003 (ip), vehicle: saline with Tween-80 98 % of control and 103 % of control | dose: 50.0 mg/kg/injection, schedule: Q01DX009 (ip), vehicle: saline with Tween-80 104 % of control | dose: 50.0 mg/kg/injection, schedule: Q01DX009 (ip), vehicle: saline 100 % of control and 94 % of control | dose: 50.0 mg/kg/injection, schedule: Q04DX003 (ip), vehicle: saline with Tween-80 100 % of control and 101 % of control and 103 % of control | dose: 66.0 mg/kg/injection, schedule: Q04DX003 (ip), vehicle: saline 102 % of control | dose: 100.0 mg/kg/injection, schedule: Q01DX009 (ip), vehicle: saline with Tween-80 86 % of control | [1] 97 % of control and 89 % of control | dose: 100.0 mg/kg/injection, schedule: Q04DX003 (ip), vehicle: saline with Tween-80 100 % of control and 104 % of control and 107 % of control | [2] 106 % of control and 122 % of control and 92 % of control | dose: 150.0 mg/kg/injection, schedule: Q04DX003 (ip), vehicle: saline 111 % of control | [3] 108 % of control

O=C(NCCCl)NC1C(O)CCCC1O (stereo unspecified)
inactive: [4] 103 % of control | [5] 97 % of control | [6] 103 % of control

CC(=O)Nc1c(CCCCc2ccccc2)[nH]c(=O)[nH]c1=O
inactive: dose: 25.0 mg/kg/injection, schedule: Q01DX001 (ip), vehicle: Klucel (hydroxypropylcellulose) (HPC) 101 % of control | [7] 92 % of control | [8] 99 % of control and 101 % of control

CCOC(=O)c1ccc(=O)n(C)c1
inactive: [1] 102 % of control | dose: 200.0 mg/kg/injection, schedule: Q01DX009 (ip), vehicle: saline 96 % of control | dose: 400.0 mg/kg/injection, schedule: Q01DX009 (ip), vehicle: saline 98 % of control

C=C(C)Cc1cnc(SC)[nH]c1=O
inactive: [7] 98 % of control | [8] 100 % of control | dose: 200.0 mg/kg/injection, schedule: Q01DX001 (ip), vehicle: Klucel (hydroxypropylcellulose) (HPC) 98 % of control

c1ccc2c(c1)c1c(c3ccccc32)CN2CCCC2C1 (stereo unspecified)
inactive: dose: 50.0 mg/kg/injection, schedule: Q01DX001 (ip), vehicle: carboxymethylcellulose (CMC) 105 % of control | [9] 105 % of control | [10] 92 % of control | dose: 400.0 mg/kg/injection, schedule: Q01DX001 (ip), vehicle: carboxymethylcellulose (CMC) 103 % of control

O=c1cc(-c2ccccc2)oc2cc(O)cc(O)c12
inactive: dose: 50.0 mg/kg/injection, schedule: Q01DX001 (ip), vehicle: saline 100 % of control | [4] 100 % of control | [5] 100 % of control | [6] 100 % of control

C[N+]1(C)C2CCC(OCc3ccccc3)C1COC2 (stereo unspecified)
inactive: dose: 75.0 mg/kg/injection, schedule: Q01DX001 (ip), vehicle: saline 98 % of control | dose: 150.0 mg/kg/injection, schedule: Q01DX001 (ip), vehicle: saline 105 % of control

O=c1[nH]cc(S)c(=O)[nH]1
inactive: [9] 96 % of control | dose: 100.0 mg/kg/injection, schedule: Q01DX015 (ip), vehicle: carboxymethylcellulose (CMC) 102 % of control | [10] 100 % of control

CC(C)(C)OC(=O)NC(Cc1cncn1Cc1ccccc1)C(=O)NC(Cc1c[nH]c2ccccc12)C(=O)OCc1ccccc1 (stereo unspecified)
inactive: [2] 97 % of control | [3] 93 % of control | dose: 400.0 mg/kg/injection, schedule: Q04DX003 (ip), vehicle: saline 95 % of control

CC1CC2=C(CCCO2)C(C)C1 (stereo unspecified)
inactive: [5] 95 % of control
